The subject of assay [1] is myelin. The assay is described as follows: Antagonism of the inhibitory activity of myelin (data not shown). The format is cell-based.
Assay [2] relates to cerebellar neurons. The assay can be described thus: Neurite outgrowth assay: antagonism of MAG-Fc-mediated inhibition of neurite outgrowth, neurons over 3T3 monolayers. The format is cell-based, rat. The settings on record: MAG-Fc 20 μg/ml; for antagonism of MAG-Fc inhibition of neurite outgrowth: peptide 100 μg/ml, ~23-27 hr, FIG. 2; for peptide concentration with maximal promotion of neurite outgrowth / peptide concentration with significant promotion of neurite outgrowth: FIG. 5; for antagonism of inhibitory activity of MAG-Fc: peptide 50 μg/ml (60 μM).

For assay [3], the system named is cerebellar neurons. The description is as above. The assay is classed as cell-based, rat. The settings on record: for effectiveness in antagonizing MAG inhibition relative to NRL2: compared with parental peptide NRL2. The method, then: (§1) Cerebellar neurons isolated from postnatal day 2/3 rat pups were cultured over monolayers of 3T3 cells (Doherty et al. (1991) Neuron 6(2):247-58) essentially as previously described (Williams et al. (1994) Neuron 13(3):583-94). Monolayers were established by seeding ˜80,000 cells into individual chambers of an eight-chamber tissue culture slide coated with poly-L-lysine and fibronectin. The cell lines, and monolayers, were maintained in Dulbecco's modified Eagle's medium supplemented with 10% fetal calf serum (FCS). Cocultures were established by removing the media from the monolayers and seeding ˜6000 dissociated cerebellar neurons into each well in SATO medium (modified from Doherty et al. (1990) Neuron 5(2):209-19; Dulbecco's modified Eagle's medium supplemented with 2% FBS, 33% bovine albumin, 0.62 μg/ml progesterone, 161 μg/ml putrescine, 4 μg/ml L-thyroxine, 0.387 μg/ml selenium, and 3.37 μg/ml tri-iodo-thyronine (components from Sigma-Aldrich, St. Louis, Mo.)). Monolayers were established for 24 hours prior to addition of the neurons and the cultures were maintained for ˜23-27 hr. Following careful fixation with 4% paraformaldehyde, the neurons were immunostained with a GAP-43 antibody, and the mean length of the longest neurite per cell was measured for ˜120-150 neurons, again as previously described (Williams et al. (1994) Neuron 13(3):583-94).
(§2) Synthetic peptides were all obtained from a commercial supplier (Multiple Peptide Systems, San Diego, Calif.). All peptides were purified to the highest grade by reverse-phase HPLC and obtained at the highest level of purity (>97%). With all peptides, there was no indication of higher molecular weight species. Where peptide sequences are underlined, this denotes a peptide that has been cyclized via a disulfide bond between the given cysteine residues. All peptides were acetylated (e.g., denoted with “N—Ac—”) and amide blocked (e.g., denoted with “—NH2”). Recombinant MAG-Fc chimera was obtained from R&D Systems (Minneapolis, Minn.) and used at final concentrations ranging from 5-25 μg/ml. The monoclonal antibody to GT1b (clone GMR5) was obtained from Seikagaku America (Falmouth, Mass.) and was used at a final concentration of 20 μg/ml. All reagents were diluted into the coculture media and, in general, added to the cultures just prior to the plating of the neurons.
MAG was the first inhibitory component of myelin to be identified based on its ability to inhibit neurite outgrowth from postnatal rat cerebellar neurons (Mukhopadhyay et al. (1994) Neuron 13(3):757-67). […] NgR1 function is required for MAG inhibition of neurite outgrowth (Domeniconi et al. (2002) Neuron 35(2):283-90; Liu et al. (2002) Science 297:1190-93). Consequently, in order to determine if the mimetic peptides could antagonize, (e.g., reverse, decrease, reduce, prevent, etc.) NgR1 function (e.g., reverse NgR1-ligand-mediated inhibition of axonal growth), the peptides were tested for their ability to antagonize MAG-mediated inhibition of axonal growth. […] The ability of the NRL peptides to antagonize MAG-mediated inhibition of axonal growth was tested in a number of independent experiments. […] In order to evaluate the efficacy of the NRL2 peptide, the ability of various concentrations of NRL2 to overcome the inhibitory activity of 25 μg/ml of the soluble MAG-Fc chimera was tested. Results obtained from at least three independent experiments have been pooled to generate FIG. 3.

Assay [4] relates to cerebellar neurons. The assay is described as follows: Neurite outgrowth assay: substance alone in coculture media, neurons over 3T3 monolayers. Particulars: without MAG-Fc; for effect on neurite outgrowth in control media: peptide alone. The assay is classed as cell-based, rat. As for the experimental part: as §1, §2
MAG was the first inhibitory component of myelin to be identified based on its ability to inhibit neurite outgrowth from postnatal rat cerebellar neurons (Mukhopadhyay et al. (1994) Neuron 13(3):757-67). […] NgR1 function is required for MAG inhibition of neurite outgrowth (Domeniconi et al. (2002) Neuron 35(2):283-90; Liu et al. (2002) Science 297:1190-93). […]

In assay [5] the test system is cerebellar neurons. The assay can be described thus: Neurite outgrowth assay: antagonism of inhibition by anti-GT1b antibody. The format is cell-based, rat. The settings on record: peptide 100 μg/ml; anti-GT1b up to 40 μg/ml; FIG. 4. The method, then:
Cerebellar neurons isolated from postnatal day 2/3 rat pups were cultured over monolayers of 3T3 cells (Doherty et al. (1991) Neuron 6(2):247-58) essentially as previously described (Williams et al. (1994) Neuron 13(3):583-94). Monolayers were established by seeding ˜80,000 cells into individual chambers of an eight-chamber tissue culture slide coated with poly-L-lysine and fibronectin. The cell lines, and monolayers, were maintained in Dulbecco's modified Eagle's medium supplemented with 10% fetal calf serum (FCS). Cocultures were established by removing the media from the monolayers and seeding ˜6000 dissociated cerebellar neurons into each well in SATO medium (modified from Doherty et al. (1990) Neuron 5(2):209-19; Dulbecco's modified Eagle's medium supplemented with 2% FBS, 33% bovine albumin, 0.62 μg/ml progesterone, 161 μg/ml putrescine, 4 μg/ml L-thyroxine, 0.387 μg/ml selenium, and 3.37 μg/ml tri-iodo-thyronine (components from Sigma-Aldrich, St. Louis, Mo.)). Monolayers were established for 24 hours prior to addition of the neurons and the cultures were maintained for ˜23-27 hr. Following careful fixation with 4% paraformaldehyde, the neurons were immunostained with a GAP-43 antibody, and the mean length of the longest neurite per cell was measured for ˜120-150 neurons, again as previously described (Williams et al. (1994) Neuron 13(3):583-94). […]

“And” between values parts separate entries of the source, which are not always exact repeats. Identical values can stand only once. “Also recorded” adds a separate entry of the source. Positions of bridges follow the written chain, without caps; N, C: chain ends.

In the case of “Ac-CTDIKGKEC-NH2 (cysteine pairing not given here)”, in assay [1], the “antagonism of the inhibitory activity of myelin” value is given as “do not antagonize”.

As to “N-Ac c[sGrfkq]-NH2 (XGXXXX; not fully specified; cyclised or stapled) [hriNRL2]”, the “reversal of MAG-mediated inhibition of neurite outgrowth” value in assay [2] (increasing peptide concentrations, FIG. 6) is reported as “reverse MAG-mediated inhibition of neurite outgrowth”.

On to “N-Ac-CAGRDLKRC-NH2 (disulfide 1-9; SMILES CC(=O)N[C@H]1CSSC[C@@H](C(N)=O)NC(=O)[C@H](CCCNC(=N)N)NC(=O)[C@H](CCCCN)NC(=O)[C@H](CC(C)C)NC(=O)[C@H](CC(=O)O)NC(=O)[C@H](CCCNC(=N)N)NC(=O)CNC(=O)[C@H](C)NC1=O) [NRL4]”, for which, in assay [2], the “antagonism of MAG-Fc inhibition of neurite outgrowth” value is listed as “MAG-Fc also substantially inhibited neurite outgrowth”.

Turning to “N-Ac-CKFRGSC-NH2 (disulfide 1-7; SMILES CC(=O)N[C@H]1CSSC[C@@H](C(N)=O)NC(=O)[C@H](CO)NC(=O)CNC(=O)[C@H](CCCNC(=N)N)NC(=O)[C@H](Cc2ccccc2)NC(=O)[C@H](CCCCN)NC1=O) [NRL2a]”, the “effectiveness in antagonizing MAG inhibition relative to NRL2” value in assay [3] was “as effective as NRL2”. Further, the “effectiveness in antagonizing MAG inhibition relative to NRL2” value in assay [3] (listed as N-Ac-CKFRGSC-NH2) is “as effective as the longer parental peptide”. In assay [2], the “peptide concentration with maximal promotion of neurite outgrowth” value is 50 μg/ml and 60 μM; the “peptide concentration with significant promotion of neurite outgrowth” value is 25 μg/ml and 30 μM; the “antagonism of inhibitory activity of MAG-Fc” value is recorded as “effectively antagonized”. The “effect on neurite outgrowth in control media” value (from here on “effect on neurite outgrowth”) in assay [4] is listed as “no effect”.

As for “N-Ac-CLQKFRGSSC-NH2 (disulfide 1-10; SMILES CC(=O)N[C@H]1CSSC[C@@H](C(N)=O)NC(=O)[C@H](CO)NC(=O)[C@H](CO)NC(=O)CNC(=O)[C@H](CCCNC(=N)N)NC(=O)[C@H](Cc2ccccc2)NC(=O)[C@H](CCCCN)NC(=O)[C@H](CCC(N)=O)NC(=O)[C@H](CC(C)C)NC1=O) [NRL2]”, in assay [3] (four disulfide-constrained NgR1 loop peptides), the “activity as MAG antagonist (summary in discussion)” value is “effective MAG antagonist”. In addition, in assay [2], the “antagonism of MAG-Fc inhibition of neurite outgrowth” value was “largely antagonized”. Besides, the “antagonism of inhibitory effects of anti-GT1b antibody” value in assay [5] is given as “reversed; also recorded: just as effective”. Further, the “effect on neurite outgrowth” value in assay [4] is listed as “no effect”. The “effect on control neurite outgrowth” value in assay [4] (tested at up to 200 μg/ml, FIG. 3) was “little effect”.

Regarding “N-Ac-CQKFRGC-NH2 (disulfide 1-7; SMILES CC(=O)N[C@H]1CSSC[C@@H](C(N)=O)NC(=O)CNC(=O)[C@H](CCCNC(=N)N)NC(=O)[C@H](Cc2ccccc2)NC(=O)[C@H](CCCCN)NC(=O)[C@H](CCC(N)=O)NC1=O) [NRL2b]”, in assay [3], the “effectiveness in antagonizing MAG inhibition relative to NRL2” value is listed as “as effective as NRL2”. Also, the “effectiveness in antagonizing MAG inhibition relative to NRL2” value in assay [3] (listed as N-Ac-CQKFRGC-NH2) was “as effective as the longer parental peptide”. Further, in assay [2], the “peptide concentration with maximal promotion of neurite outgrowth” value is 50 μg/ml and 60 μM; the “peptide concentration with significant promotion of neurite outgrowth” value is 25 μg/ml and 30 μM; the “antagonism of inhibitory activity of MAG-Fc” value was “effectively antagonized”. Further, in assay [4], the “effect on neurite outgrowth” value was “no effect”.

Take “N-Ac-CSLPQRLAC-NH2 (disulfide 1-9; SMILES CC(=O)N[C@H]1CSSC[C@@H](C(N)=O)NC(=O)[C@H](C)NC(=O)[C@H](CC(C)C)NC(=O)[C@H](CCCNC(=N)N)NC(=O)[C@H](CCC(N)=O)NC(=O)[C@@H]2CCCN2C(=O)[C@H](CC(C)C)NC(=O)[C@H](CO)NC1=O) [NRL3]”: the “antagonism of MAG-Fc inhibition of neurite outgrowth” value in assay [2] was “MAG-Fc also substantially inhibited neurite outgrowth”.

With “N-Ac-CYNEPKVTC-NH2 (disulfide 1-9; SMILES CC(=O)N[C@H]1CSSC[C@@H](C(N)=O)NC(=O)[C@H]([C@@H](C)O)NC(=O)[C@H](C(C)C)NC(=O)[C@H](CCCCN)NC(=O)[C@@H]2CCCN2C(=O)[C@H](CCC(=O)O)NC(=O)[C@H](CC(N)=O)NC(=O)[C@H](Cc2ccc(O)cc2)NC1=O) [NRL1]”, the “antagonism of MAG-Fc inhibition of neurite outgrowth” value in assay [2] is “MAG-Fc also substantially inhibited neurite outgrowth”.

Take NGF: nerve growth factor: the “antagonism of the inhibitory activity of myelin” value in assay [1] is listed as “do not antagonize”.

For the origin of these results see US20090131327A1, “NOGO RECEPTOR FUNCTIONAL MOTIFS AND PEPTIDE MIMETICS RELATED THERETO AND METHODS OF USING THE SAME” (priority 2005, published 2009).
